Results taken from PMC2737586 (Chemistry & biology, 2009).

Legend:
Assay type in all cases: biochemical
N-terminal half of ValD = N-terminal half of ValD (Streptomyces hygroscopicus, UniProt Q1L2K7); assay: in vitro epimerase assay
ValD [1] = molecular target: ValD (Streptomyces hygroscopicus, UniProt Q1L2K7, H315N); assay: TLC of epimerization, relative activity; conditions: TLC after 30 min
ValD [2] = molecular target: ValD (Streptomyces hygroscopicus, UniProt Q1L2K7, E107A); assay: TLC of epimerization, relative activity; conditions: TLC after 30 min
ValD [3] = molecular target: ValD (Streptomyces hygroscopicus, UniProt Q1L2K7, H229N); assay: TLC and 1H NMR of epimerization, relative activity; conditions: TLC after 30 min
ValD [4] = molecular target: ValD (Streptomyces hygroscopicus, UniProt Q1L2K7, H44N); assay: TLC and 1H NMR of epimerization, relative activity; conditions: TLC after 30 min
ValD [5] = molecular target: ValD (Streptomyces hygroscopicus, UniProt Q1L2K7, E366A); assay: TLC and 1H NMR of epimerization, relative activity; conditions: TLC after 30 min
ValD [6] = molecular target: ValD (Streptomyces hygroscopicus, UniProt Q1L2K7, E183A); assay: TLC and 1H NMR of epimerization, relative activity; conditions: TLC after 30 min
C-terminal half of ValD = C-terminal half of ValD (Streptomyces hygroscopicus, UniProt Q1L2K7); assay: in vitro epimerase assay
ValD [7] = molecular target: ValD (Streptomyces hygroscopicus, UniProt Q1L2K7, H130N); assay: TLC of epimerization, relative activity; conditions: TLC after 30 min
ValD [8] = molecular target: ValD (Streptomyces hygroscopicus, UniProt Q1L2K7, E291A); assay: TLC of epimerization, relative activity; conditions: TLC after 30 min

O=C1C[C@@](O)(CO)[C@@H](O)[C@H](O)[C@@H]1O [2-epi-5-epi-valiolone]
in vitro epimerase assay (data not shown) (N-terminal half of ValD): truncated proteins have a significantly reduced capacity to convert 2-epi-5-epi-valiolone to 5-epi-valiolone (data not shown) | TLC of epimerization, relative activity (ValD [1]): Mutation at H315 appeared to have moderate effect on the epimerase activity | TLC of epimerization, relative activity (ValD [2]): H44N, E107A, and E366A proteins had significantly reduced activities | TLC and 1H NMR of epimerization, relative activity (ValD [3]): H130N, E183A, H229N, and E291A proteins had a comparable epimerase activity | TLC and 1H NMR of epimerization, relative activity (ValD [4]): H44N, E107A, and E366A proteins had significantly reduced activities | TLC and 1H NMR of epimerization, relative activity (ValD [5]): H44N, E107A, and E366A proteins had significantly reduced activities | TLC and 1H NMR of epimerization, relative activity (ValD [6]): H130N, E183A, H229N, and E291A proteins had a comparable epimerase activity | in vitro epimerase assay (data not shown) (C-terminal half of ValD): truncated proteins have a significantly reduced capacity to convert 2-epi-5-epi-valiolone to 5-epi-valiolone (data not shown) | TLC of epimerization, relative activity (ValD [7]): H130N, E183A, H229N, and E291A proteins had a comparable epimerase activity | TLC of epimerization, relative activity (ValD [8]): H130N, E183A, H229N, and E291A proteins had a comparable epimerase activity
